# Measurements from patent US9650339B2, “Inhibitors of histone demethylases” (Gilead Sciences, Inc., priority 2013, dated 2017).
# Key:
# KDM2B (FBXL10) = molecular target: T1, KDM2B (FBXL10) (Homo sapiens, UniProt Q8NHM5); assay: Histone lysine demethylase AlphaLISA assay, KDM2B; format: biochemical; conditions: read-out: KDM2B HDME Inhibition IC50
# T1 sequence (Q8NHM5 1-650): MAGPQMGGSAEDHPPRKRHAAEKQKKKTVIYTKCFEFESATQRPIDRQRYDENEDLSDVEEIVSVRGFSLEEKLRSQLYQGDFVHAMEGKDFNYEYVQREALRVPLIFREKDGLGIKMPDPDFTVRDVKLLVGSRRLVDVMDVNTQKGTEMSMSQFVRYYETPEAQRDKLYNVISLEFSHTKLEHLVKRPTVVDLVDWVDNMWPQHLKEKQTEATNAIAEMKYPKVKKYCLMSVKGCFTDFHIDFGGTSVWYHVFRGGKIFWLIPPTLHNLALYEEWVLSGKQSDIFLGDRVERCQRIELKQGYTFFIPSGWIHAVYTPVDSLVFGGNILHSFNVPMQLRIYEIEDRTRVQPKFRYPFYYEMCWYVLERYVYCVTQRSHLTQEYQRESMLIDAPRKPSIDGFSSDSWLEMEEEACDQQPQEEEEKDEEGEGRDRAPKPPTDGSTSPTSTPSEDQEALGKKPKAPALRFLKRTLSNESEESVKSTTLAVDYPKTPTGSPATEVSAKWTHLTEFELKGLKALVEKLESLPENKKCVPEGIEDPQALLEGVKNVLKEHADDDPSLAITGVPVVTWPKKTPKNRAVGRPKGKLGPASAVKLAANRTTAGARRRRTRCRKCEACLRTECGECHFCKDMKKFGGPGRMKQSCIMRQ
# Outline: (§1)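 Steps: enzyme equilibrated 10 min in buffer; compounds in 3% DMSO solution added, 10 min; substrate mix added (peptide, 25 μM L-Asc, 10 μM α-KG), room temperature; acceptor beads, then streptavidin donor beads, dark incubations; plate read.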
# KDM4C (JMJD2C) = molecular target: T2, KDM4C (JMJD2C) (Homo sapiens, UniProt Q9H3R0); assay: Histone lysine demethylase AlphaLISA assay, KDM4C; format: biochemical; conditions: read-out: KDM4C HDME Inhibition IC50
# T2 sequence (Q9H3R0 1-349): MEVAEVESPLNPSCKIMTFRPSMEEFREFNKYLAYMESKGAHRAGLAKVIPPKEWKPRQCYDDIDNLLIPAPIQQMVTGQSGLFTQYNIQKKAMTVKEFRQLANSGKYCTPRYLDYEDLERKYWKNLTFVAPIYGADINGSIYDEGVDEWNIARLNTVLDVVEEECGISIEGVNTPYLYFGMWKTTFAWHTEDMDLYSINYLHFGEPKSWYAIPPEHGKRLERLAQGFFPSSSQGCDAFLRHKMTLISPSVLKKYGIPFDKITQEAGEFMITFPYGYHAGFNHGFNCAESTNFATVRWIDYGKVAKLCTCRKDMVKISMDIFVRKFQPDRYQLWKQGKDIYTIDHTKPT
# Outline: as §1
# KDM5B (PLU-1) = molecular target: T3, KDM5B (PLU-1) (Homo sapiens, UniProt Q9UGL1); assay: Histone lysine demethylase AlphaLISA assay, KDM5B; format: biochemical; conditions: read-out: KDM5B HDME Inhibition IC50
# T3 sequence (Q9UGL1 1-809): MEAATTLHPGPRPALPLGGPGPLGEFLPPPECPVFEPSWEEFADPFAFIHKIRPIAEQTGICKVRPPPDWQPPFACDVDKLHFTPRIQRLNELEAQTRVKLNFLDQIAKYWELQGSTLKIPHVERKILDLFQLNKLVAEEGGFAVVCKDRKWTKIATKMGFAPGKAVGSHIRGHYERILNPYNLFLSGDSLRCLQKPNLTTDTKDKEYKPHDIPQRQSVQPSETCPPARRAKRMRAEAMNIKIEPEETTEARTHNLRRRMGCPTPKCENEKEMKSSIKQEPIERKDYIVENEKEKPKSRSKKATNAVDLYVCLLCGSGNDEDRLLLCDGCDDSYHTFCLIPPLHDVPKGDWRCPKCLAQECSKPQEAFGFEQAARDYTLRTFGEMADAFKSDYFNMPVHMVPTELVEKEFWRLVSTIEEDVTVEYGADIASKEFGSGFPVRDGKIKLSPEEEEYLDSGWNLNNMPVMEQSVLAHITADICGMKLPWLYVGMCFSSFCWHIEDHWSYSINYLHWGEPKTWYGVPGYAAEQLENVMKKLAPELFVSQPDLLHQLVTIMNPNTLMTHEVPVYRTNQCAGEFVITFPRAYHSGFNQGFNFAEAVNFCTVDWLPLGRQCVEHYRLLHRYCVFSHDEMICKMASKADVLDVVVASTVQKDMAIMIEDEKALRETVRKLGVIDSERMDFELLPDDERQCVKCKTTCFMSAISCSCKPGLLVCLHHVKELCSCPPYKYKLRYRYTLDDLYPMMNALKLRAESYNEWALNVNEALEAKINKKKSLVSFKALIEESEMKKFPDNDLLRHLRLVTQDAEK
# Outline: as §1
# KDM6A (UTX) = KDM6A (UTX) (Homo sapiens, UniProt O15550); assay: Histone lysine demethylase AlphaLISA assay, KDM6A; format: biochemical; conditions: read-out: KDM6A HDME Inhibition IC50
# Outline: as §1
# MCF7 cells = assay: Cell proliferation assay MCF7; format: cell-based; conditions: MCF7 human breast cancer cells; 120 hours; ATPlite 1 Step
# Outline: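 After 120 h of compound exposure (duplicates, DMSO at most 0.5%) in DMEM GlutaMAX with 10% FBS, ATPlite 1 Step luminescence measured cellular ATP. Compound was added 24 h after seeding, at a density chosen for ~90% confluence at the end.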
# KARPAS620 = assay: Cell proliferation assay KARPAS620; format: cell-based; conditions: Homo sapiens, Karpas-620; KARPAS620, Plasma cell leukemia; method of Example 5
# Method: (§2) MCF7 cells were seeded in multi well plates at a density optimized to give approximately 90% confluent cells at the time of harvest. Cells were incubated for 24 hours before addition of compound. Compounds were diluted in complete medium and added to the plates in duplicates. The final concentration of DMSO was maximum 0.5%. Complete medium used was DMEM with GlutaMAX containing 10% FBS and pen/strep.
# (§3) 120 hours after addition of compounds, the plates were harvested and analyzed by ATPlite 1 Step (Perkin Elmer, cat no 6016739) according to the manufactures recommendation.
# (§4) The assays were performed by the method of Example 5 by seeding the relevant cell line at a density optimized to give approximately 90% confluent cells at the time of harvest.
# MOLP8 = assay: Cell proliferation assay MOLP8; format: cell-based; conditions: Homo sapiens, MOLP-8; MOLP8, Myeloma; method of Example 5
# Method: as §2, §3, §4
# Sequence of KDM6A (UTX) (O15550 919-1401): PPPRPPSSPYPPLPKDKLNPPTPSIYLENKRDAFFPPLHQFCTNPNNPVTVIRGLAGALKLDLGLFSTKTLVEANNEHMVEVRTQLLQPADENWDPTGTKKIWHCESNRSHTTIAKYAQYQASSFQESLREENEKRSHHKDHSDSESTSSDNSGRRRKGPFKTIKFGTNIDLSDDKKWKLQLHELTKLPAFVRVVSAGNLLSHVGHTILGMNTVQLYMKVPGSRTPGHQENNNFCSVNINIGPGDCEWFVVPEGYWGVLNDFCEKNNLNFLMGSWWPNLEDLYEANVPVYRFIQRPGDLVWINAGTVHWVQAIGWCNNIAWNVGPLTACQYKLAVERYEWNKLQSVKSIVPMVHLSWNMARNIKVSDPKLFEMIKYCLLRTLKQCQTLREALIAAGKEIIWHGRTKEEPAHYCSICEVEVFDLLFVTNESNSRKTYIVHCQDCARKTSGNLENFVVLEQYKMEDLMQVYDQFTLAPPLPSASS
structure (smiles),measurement,setting,value
"CCN(CCN(C)C)C(=O)CNCc1cc(/C=N/CC(CO)C2CCCCC2)ccn1 (stereo not shown) [Compound 81, 2-[({4-[[(2-cyclohexyl-3-hydroxypropyl)-imino]methyl]pyridin-2-yl}methyl)-amino]-N-[2-(dimethylamino)-ethyl]-N-ethylacetamide]",IC50,KDM2B (FBXL10),> 2.5 µM
same,IC50,KDM4C (JMJD2C),0.25 to 2.5 µM
same,IC50,KDM5B (PLU-1),< 0.25 µM
same,IC50,KDM6A (UTX),> 2.5 µM
same,EC50,MCF7 cells,< 0.25 µM
same,EC50,KARPAS620,< 0.25 µM
same,EC50,MOLP8,< 0.25 µM
